Measured values published in PubChem BioAssay (NCI).
“And” between values parts separate entries of the source, which are not always exact repeats. Equal values may be shown once.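 Test compounds were applied to cells in 96-well plates for 48 hours at 5 doses. Here, GI50 denotes the concentration required for 50% inhibition of growth. TGI denotes the concentration required for complete inhibition of growth.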

Key:
Assay in all cases: growth of human tumour cells (NCI), 48 h
MDA-MB-231 breast = test system: MDA-MB-231 breast
SK-MEL-28 melanoma = test system: SK-MEL-28 melanoma
TK-10 renal = test system: TK-10 renal
OVCAR-5 ovarian = test system: OVCAR-5 ovarian
UACC-62 melanoma = test system: UACC-62 melanoma
IGROV1 ovarian = test system: IGROV1 ovarian
KM12 colon = test system: KM12 colon
OVCAR-3 ovarian = test system: OVCAR-3 ovarian
HCC-2998 colon = test system: HCC-2998 colon
HCT-116 colon = test system: HCT-116 colon

| Compound | GI50 (MDA-MB-231 breast) | TGI (MDA-MB-231 breast) | GI50 (SK-MEL-28 melanoma) | TGI (SK-MEL-28 melanoma) | GI50 (TK-10 renal) | TGI (TK-10 renal) [µM] | GI50 (OVCAR-5 ovarian) | TGI (OVCAR-5 ovarian) | GI50 (UACC-62 melanoma) | TGI (UACC-62 melanoma) [µM] | GI50 (IGROV1 ovarian) | TGI (IGROV1 ovarian) | GI50 (KM12 colon) | TGI (KM12 colon) | GI50 (OVCAR-3 ovarian) | TGI (OVCAR-3 ovarian) | GI50 (HCC-2998 colon) | TGI (HCC-2998 colon) | GI50 (HCT-116 colon) | TGI (HCT-116 colon) |
| --- | --- | --- | --- | --- | --- | --- | --- | --- | --- | --- | --- | --- | --- | --- | --- | --- | --- | --- | --- | --- |
| COc1ccc2[nH]c(C(=O)OCc3ccc4c(Br)cc(Br)c(O)c4n3)cc2c1 | 808 nM | 2.17 µM | 1.26 µM | 2.53 µM | 1.39 µM | 2.71 | 1.21 µM | 2.66 µM | 1060 nM | 2.29 | 418 nM | 1.67 µM | 1.64 µM | 3.38 µM | 447 nM | 1.56 µM | 1570 nM | 3.06 µM | 187 nM | 0.543 µM |
| CS(=O)(=O)N1CCC(Nc2ncc(C(=O)c3c(F)cccc3F)c(N)n2)CC1 | 11900 nM | > 25 µM | 18.6 µM | > 25 µM | 7.98 µM | > 25 | 9.78 µM | > 25 µM | 12600 nM | > 25 | 11400 nM | > 25 µM | 8.67 µM | > 25 µM | 13700 nM | > 25 µM | 12900 nM | > 25 µM | 6000 nM | > 25 µM |
| CC[C@]12C=CCN3CC[C@]4(C(=C(C(=O)OC)C1)Nc1cc5c(cc14)[C@@H]1[C@H](O5)[C@@H](O)[C@@]4(CC)CC(C(=O)OC)=C5Nc6ccccc6[C@@]56CCN1[C@@H]46)[C@@H]32 | 155 nM and 395 nM | 10.2 µM and 28.9 µM | 1.07 µM and 1.32 µM | 9.29 µM and 24.2 µM | 0.185 µM and 0.402 µM | – | 0.749 µM and 0.826 µM | 25 µM and 21.3 µM | 137 nM and 158 nM | – | 156 nM and 253 nM | 3.99 µM and 14 µM | 0.76 µM and 0.471 µM | 8.41 µM and 5.92 µM | 240 nM and 255 nM | 1.13 µM and 1.29 µM | 29.2 nM and 36.6 nM | 2.63 µM and 1.26 µM | 216 nM and 341 nM | 2.59 µM and 1.65 µM |
| Nc1c(C(=O)Nc2cccc(Cl)c2)sc2nc3c(cc12)C(O)CCC3 (stereo not drawn) | 1920 nM | 49.1 µM | 3.02 µM | 59 µM | 10.8 µM | 36.8 | 2.89 µM | 33.9 µM | 463 nM | 58.8 | 992 nM | 40.7 µM | 0.397 µM | > 49.9 µM | 311 nM | 1.22 µM | 2390 nM | 25.7 µM | 440 nM | 19.1 µM |
| COc1ccccc1CNCCCN1C(=O)c2ccc3c4c(ccc(c24)C1=O)C(=O)N(CCCNCCCCNCCCN)C3=O | 431 nM | 10.5 µM | 0.388 µM | 1.44 µM | 0.959 µM | 6.28 | 2.03 µM | 11 µM | 362 nM | 1.69 | 359 nM | 11.1 µM | 0.338 µM | 1.46 µM | 261 nM | 0.699 µM | 295 nM | 1.06 µM | 315 nM | 1.16 µM |
| Cc1nc2ccc(-n3ncc(C(=O)c4cc5ccccc5[nH]4)c3N)cc2[nH]1 | 10600 nM | 40.7 µM | 8.78 µM | > 100 µM | 18.4 µM | > 100 | 16 µM | > 100 µM | 4240 nM | 24.9 | 9740 nM | > 100 µM | 3.53 µM | 43.1 µM | 11200 nM | > 100 µM | 14400 nM | > 100 µM | 4510 nM | > 100 µM |
| C=C(C(=O)c1ccccc1)C(NC(C)(C)C)c1ccccc1 (stereo not drawn) | 2060 nM | 4.84 µM | 1.84 µM | 3.72 µM | 1.02 µM | 2.25 | 2.37 µM | 4.65 µM | 1540 nM | 4.02 | 2300 nM | 6.9 µM | 2.22 µM | 6.36 µM | 1300 nM | 3.24 µM | 1810 nM | 3.38 µM | 1330 nM | 2.92 µM |
| Cc1cc(O)ccc1C1(c2ccc(O)cc2C)OC(=O)c2ccccc21 | 21400 nM | 48.9 µM | 17.3 µM | 35.4 µM | 17 µM | 30.8 | 16 µM | 32.9 µM | 18000 nM | 35.9 | 21000 nM | 47.5 µM | 18.8 µM | 37.7 µM | 16400 nM | 30.1 µM | 18500 nM | 33.9 µM | 18600 nM | 33.7 µM |
| Cc1ccc(C2=NN(c3ccc(S(=O)(=O)NC(=O)NCc4ccccc4)cc3)C(c3ccc(N(C)C)cc3)C2)c(C)c1 (stereo not drawn) | 4160 nM | 22.4 µM | 2.36 µM | 6.89 µM | 6.46 µM | 35.9 | 5.4 µM | 29.3 µM | 2500 nM | 6.8 | 4310 nM | 13.6 µM | 3.49 µM | 15.4 µM | 2240 nM | 4.95 µM | 2450 nM | 5.65 µM | 4000 nM | 14.9 µM |
| CC(C)[C@@]12C[C@@H](OC(=O)COC(=O)c3ccccc3)[C@@](C)(O1)[C@@H]1CC[C@@H](C)[C@H]1[C@@H]2OC(=O)/C=C/c1ccccc1 | > 100000 nM | > 100 µM | > 100 µM | > 100 µM | > 100 µM | > 100 | > 100 µM | > 100 µM | > 100000 nM | > 100 | > 100000 nM | > 100 µM | > 100 µM | > 100 µM | > 100000 nM | > 100 µM | > 100000 nM | > 100 µM | > 100000 nM | > 100 µM |
| CCc1ccc(Oc2c(-c3ccc(OCCc4cccc(C(F)(F)F)c4)cc3O)n[nH]c2C(F)(F)F)cc1 | 4940 nM | 11.1 µM | 5.39 µM | 11.4 µM | 5.52 µM | 11.5 | 7.64 µM | 14.4 µM | 3440 nM | 10.4 | 2510 nM | 8.72 µM | 4.2 µM | 10.8 µM | 1520 nM | 4.66 µM | 8540 nM | 16 µM | 1530 nM | 5.47 µM |
| COc1cc(-c2oc3c(OC)c(O)c(OC)c(O)c3c(=O)c2OC)cc(OC)c1OC | – | > 100 µM | – | > 100 µM | – | > 100 | – | > 100 µM | – | > 100 | – | > 100 µM | – | > 100 µM | – | 95.9 µM | – | > 100 µM | – | > 100 µM |
| CC(C)c1cnc(-c2cc(Cl)ccc2F)cc1Nc1ccncc1C(=O)NC(CO)CO | 15300 nM | 44.3 µM | 16.9 µM | 32.8 µM | 10.8 µM | 56 | 16.2 µM | 39.6 µM | 15100 nM | 29 | 10300 nM | 35.4 µM | 17.7 µM | 37.4 µM | 14300 nM | 32.8 µM | 17600 nM | 33.2 µM | 12500 nM | 28.5 µM |
| Cn1c2c(c3ccccc31)CCN1C[C@@H]3CCCC[C@H]3C[C@@H]21 | 2880 nM | 8.66 µM | 6.03 µM | > 100 µM | 3.01 µM | 23.2 | 3.82 µM | > 100 µM | 4190 nM | > 100 | 3450 nM | > 54.6 µM | 2.97 µM | 9.97 µM | 1950 nM | 4.74 µM | 2100 nM | 5.48 µM | 3190 nM | > 31.2 µM |
| C[n+]1cccc(NC(=O)c2ccc3ccc4ccc(C(=O)Nc5ccc[n+](C)c5)nc4c3n2)c1 | 2410 nM | > 52.4 µM | 2.13 µM | > 100 µM | 53.7 µM | > 100 | 47.8 µM | > 100 µM | 357 nM | 2.05 | 1510 nM | > 100 µM | 3.08 µM | > 100 µM | 4300 nM | > 100 µM | 3040 nM | > 100 µM | 3180 nM | > 100 µM |
| CSC1=CC(=O)c2ccccc2C1=O | 1290 nM | 3.02 µM | 11.1 µM | 23.8 µM | 2.66 µM | 5.5 | 17.4 µM | 34.2 µM | 4060 nM | 17.1 | 3700 nM | 13.2 µM | 6.75 µM | 22.5 µM | 1780 nM | 3.37 µM | 15300 nM | 29.9 µM | 1520 nM | 2.92 µM |
| CCN1CCN(Cc2ccc(NC(=O)Nc3nc(-c4cc(OC)c(OC)c(OC)c4)cs3)cc2C(F)(F)F)CC1 | 1600 nM | 3.46 µM | 1.65 µM | 3 µM | 1.95 µM | 4.25 | 1.62 µM | 3.44 µM | 1680 nM | 3.18 | 1930 nM | 4.59 µM | 1.65 µM | 3.35 µM | 2280 nM | 6.89 µM | 1800 nM | 3.4 µM | 1480 nM | 2.84 µM |
